Source: ChEMBL document CHEMBL1201862, “PubChem BioAssay data set” (2004)
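Exposure lasted 48 hours, with cells grown in 96-well plates and compounds tested at five concentrations. GI50 = concentration required for 50% inhibition of growth.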 Activity calls are given as the source filed them. Rule as the data show it: active = GI50 up to about 1.1 µM and inactive = higher.

What was measured:
Experiment in all cases: NCI-60 cell line screen, 48 h
SK-MEL-28 = system: SK-MEL-28
NCI-H460 = system: NCI-H460
KM12 = system: KM12
HT-29 = system: HT-29
HOP-92 = system: HOP-92
UACC-62 = system: UACC-62
OVCAR-3 = system: OVCAR-3
OVCAR-5 = system: OVCAR-5
UO-31 = system: UO-31
SK-MEL-2 = system: SK-MEL-2
K562 = system: K562
SK-OV-3 = system: SK-OV-3
HOP-62 = system: HOP-62
IGROV-1 = system: IGROV-1
SK-MEL-5 = system: SK-MEL-5
U-251 = system: U-251
NCI-H522 = system: NCI-H522

Measured: GI50

N#CC1(Cc2ccccc2)CCCCN1C(=O)c1ccccc1 (stereo unspecified)
inactive: SK-MEL-28 > 100 µM | NCI-H460 > 100 µM | KM12 > 100 µM | HT-29 > 100 µM | HOP-92 > 100 µM | UACC-62 > 100 µM | OVCAR-3 > 100 µM | OVCAR-5 > 100 µM | UO-31 92.9 µM | SK-MEL-2 1.42 µM | K562 > 100 µM | SK-OV-3 > 100 µM | HOP-62 > 100 µM | IGROV-1 > 100 µM | SK-MEL-5 > 100 µM | U-251 > 100 µM

CC1OC(n2cc(F)c(=O)[nH]c2=O)C=CC1=O (stereo unspecified)
inactive: SK-MEL-28 17.7 µM | NCI-H460 21.6 µM | KM12 17.7 µM | HT-29 23 µM | HOP-92 17.7 µM | UACC-62 17.7 µM | OVCAR-3 16 µM | OVCAR-5 16 µM | UO-31 16.1 µM | SK-MEL-2 15.1 µM | K562 31 µM | SK-OV-3 29 µM | HOP-62 38.8 µM | IGROV-1 29.8 µM | NCI-H522 9.38 µM | SK-MEL-5 17.4 µM | U-251 14.8 µM

C=CCCOC(=O)CO[N+](=O)[O-]
inactive: SK-MEL-28 > 100 µM | NCI-H460 > 100 µM | KM12 > 100 µM | HT-29 > 100 µM | OVCAR-3 > 100 µM | OVCAR-5 > 100 µM | UO-31 > 100 µM | SK-MEL-2 > 100 µM | K562 > 100 µM | SK-OV-3 > 100 µM | HOP-62 > 100 µM | IGROV-1 > 100 µM | NCI-H522 > 100 µM | U-251 > 100 µM

CO/N=C/c1cc(OC)c(OC)c(OC)c1
inactive: SK-MEL-28 > 100 µM | NCI-H460 > 100 µM | KM12 > 100 µM | HT-29 > 100 µM | HOP-92 > 100 µM | UACC-62 > 100 µM | OVCAR-3 > 100 µM | OVCAR-5 > 100 µM | UO-31 > 100 µM | SK-MEL-2 > 100 µM | K562 > 100 µM | SK-OV-3 > 100 µM | HOP-62 > 100 µM | IGROV-1 > 100 µM | NCI-H522 > 100 µM | SK-MEL-5 > 100 µM | U-251 > 100 µM

COc1cc(OC)cc(N2CCC(c3c(N)nc(N)nc3Cl)CC2)c1
inactive: SK-MEL-28 52.8 µM | NCI-H460 53.7 µM | KM12 66.4 µM | HOP-92 48.4 µM | UACC-62 52.6 µM | OVCAR-3 83.9 µM | OVCAR-5 > 100 µM | UO-31 62.8 µM | SK-MEL-2 92.3 µM | K562 31.6 µM | SK-OV-3 > 100 µM | HOP-62 62.2 µM | IGROV-1 > 100 µM | NCI-H522 41.3 µM | SK-MEL-5 24.8 µM

C=CC1[C@H]2COC(C)(C)O[C@@H]2CC(=O)C1(C)C (stereo partly specified)
inactive: SK-MEL-28 > 100 µM | NCI-H460 > 100 µM | KM12 > 100 µM | HT-29 > 100 µM | HOP-92 > 100 µM | OVCAR-5 > 100 µM | UO-31 > 100 µM | SK-MEL-2 > 100 µM | HOP-62 > 100 µM | NCI-H522 > 100 µM | U-251 > 100 µM

COc1ccc(-c2cc(O)c3cc4c(cc3n2)OCO4)cc1
inactive: SK-MEL-28 > 100 µM | NCI-H460 > 100 µM | HT-29 > 100 µM | UACC-62 > 100 µM | OVCAR-3 > 100 µM | UO-31 > 100 µM | SK-MEL-2 > 100 µM | K562 > 100 µM | HOP-62 61 µM | IGROV-1 > 100 µM | SK-MEL-5 > 100 µM | U-251 > 100 µM

CCNC(=O)OCc1c(COC(=O)NCC)c(-c2ccc(Cl)c(Cl)c2)n2c1CCC2
inactive: SK-MEL-28 14.9 µM | NCI-H460 4.61 µM | KM12 25.9 µM | HT-29 18.3 µM | HOP-92 5.5 µM | UACC-62 5.92 µM | OVCAR-3 17.6 µM | OVCAR-5 20.3 µM | UO-31 5.22 µM | SK-MEL-2 13.1 µM | K562 8.61 µM | HOP-62 7.33 µM | IGROV-1 9.31 µM | NCI-H522 6.58 µM | SK-MEL-5 14.9 µM | U-251 10.5 µM

C[C@@H]1C[C@H]2[C@@H]3CCC4=CC(=O)C=C[C@]4(C)[C@@]3(F)[C@@H](O)C[C@]2(C)[C@@]1(O)C(=O)CO [DEXAMETHASONE]
inactive: SK-MEL-28 > 100 µM | KM12 > 100 µM | HT-29 > 100 µM | HOP-92 > 100 µM | UACC-62 > 100 µM | OVCAR-3 > 100 µM | OVCAR-5 > 100 µM | UO-31 > 100 µM | SK-MEL-2 > 100 µM | K562 > 100 µM | SK-OV-3 > 100 µM | HOP-62 > 100 µM | IGROV-1 > 100 µM | NCI-H522 > 100 µM | SK-MEL-5 > 100 µM

NC1=NC(c2ccccc2)CC(c2cc(Cl)ccc2O)=N1 (stereo unspecified)
inactive: SK-MEL-28 18.7 µM | NCI-H460 15.5 µM | KM12 13.7 µM | HT-29 17.5 µM | HOP-92 19.1 µM | UACC-62 15.8 µM | OVCAR-3 17.5 µM | OVCAR-5 19.9 µM | UO-31 15.2 µM | K562 10.1 µM | SK-OV-3 17.9 µM | HOP-62 16.2 µM | IGROV-1 19.3 µM | NCI-H522 15.5 µM | U-251 16.3 µM

Cc1cc2c(=O)c3ccccc3[nH]c2c(C(N)=O)c1C
inactive: SK-MEL-28 > 100 µM | NCI-H460 > 100 µM | KM12 > 100 µM | HT-29 > 100 µM | UACC-62 > 100 µM | OVCAR-3 > 100 µM | OVCAR-5 > 100 µM | UO-31 > 100 µM | SK-MEL-2 > 100 µM | K562 > 100 µM | SK-OV-3 > 100 µM | IGROV-1 > 100 µM | NCI-H522 > 100 µM | SK-MEL-5 > 100 µM | U-251 > 100 µM

CCOC(=O)[C@H](Cc1ccccc1)NC(=O)c1nc[nH]c1[N+](=O)[O-]
inactive: SK-MEL-28 > 100 µM | NCI-H460 > 100 µM | KM12 > 100 µM | HT-29 > 100 µM | UACC-62 > 100 µM | OVCAR-3 > 100 µM | UO-31 > 100 µM | SK-MEL-2 > 100 µM | K562 > 100 µM | SK-OV-3 > 100 µM | HOP-62 > 100 µM | IGROV-1 > 100 µM | NCI-H522 > 100 µM | SK-MEL-5 > 100 µM | U-251 > 100 µM

CC(N)Cc1ccc(F)cc1 (stereo unspecified)
inactive: SK-MEL-28 > 100 µM | NCI-H460 > 100 µM | KM12 > 100 µM | HT-29 > 100 µM | HOP-92 > 100 µM | UACC-62 > 100 µM | OVCAR-3 > 100 µM | OVCAR-5 > 100 µM | UO-31 > 100 µM | SK-MEL-2 > 100 µM | K562 > 100 µM | SK-OV-3 > 100 µM | HOP-62 > 100 µM | IGROV-1 > 100 µM | NCI-H522 > 100 µM | SK-MEL-5 > 100 µM | U-251 > 100 µM

Cc1ccc(C2=Nc3ccccc3NC(=O)C2)cc1
inactive: SK-MEL-28 > 100 µM | NCI-H460 > 100 µM | KM12 > 100 µM | HT-29 > 100 µM | HOP-92 26.9 µM | UACC-62 > 100 µM | OVCAR-3 > 100 µM | OVCAR-5 > 100 µM | UO-31 > 100 µM | SK-MEL-2 > 100 µM | K562 > 100 µM | SK-OV-3 > 100 µM | HOP-62 > 100 µM | IGROV-1 > 100 µM | NCI-H522 98.4 µM | SK-MEL-5 > 100 µM | U-251 32.2 µM

CCOC(=O)CP(=S)(S)c1ccccc1 (stereo unspecified)
inactive: SK-MEL-28 > 100 µM | NCI-H460 > 100 µM | KM12 > 100 µM | HT-29 > 100 µM | HOP-92 > 100 µM | UACC-62 > 100 µM | OVCAR-5 > 100 µM | UO-31 > 100 µM | SK-MEL-2 > 100 µM | K562 > 100 µM | SK-OV-3 > 100 µM | HOP-62 > 100 µM | NCI-H522 > 100 µM | SK-MEL-5 > 100 µM | U-251 > 100 µM

C=C1C(=O)O[C@H]2C[C@@H](C)[C@@H]3CC(=O)OC[C@@]3(C)CC12 (stereo partly specified)
inactive: SK-MEL-28 19.7 µM | NCI-H460 18.8 µM | KM12 20.5 µM | HT-29 17.5 µM | HOP-92 16.1 µM | UACC-62 19.2 µM | OVCAR-3 28 µM | UO-31 49.1 µM | SK-MEL-2 35.8 µM | K562 17.5 µM | SK-OV-3 97.7 µM | HOP-62 44.8 µM | IGROV-1 51.6 µM | NCI-H522 3.56 µM | SK-MEL-5 34.3 µM | U-251 97.3 µM

COc1ccc(/C=C2\Cc3ccccc3C2=O)cc1OC
inactive: SK-MEL-28 > 100 µM | NCI-H460 > 100 µM | KM12 > 100 µM | HT-29 > 100 µM | UACC-62 > 100 µM | OVCAR-3 > 100 µM | OVCAR-5 > 100 µM | UO-31 39.7 µM | SK-MEL-2 > 100 µM | K562 > 100 µM | SK-OV-3 > 100 µM | HOP-62 > 100 µM | IGROV-1 > 100 µM | NCI-H522 70.6 µM | SK-MEL-5 63.4 µM | U-251 > 100 µM

CC(C)=CCC/C(C)=C/CC/C(C)=C/CCC1(C)CCC([C@H](C)C(=O)O)OO1.CC1=C(CC/C(C)=C/CCC2(C)CCC([C@H](C)C(=O)O)OO2)C(C)(C)CCC1 (stereo partly specified)
inactive: SK-MEL-28 > 100 µM | NCI-H460 > 100 µM | KM12 > 100 µM | HT-29 > 100 µM | HOP-92 > 100 µM | OVCAR-3 > 100 µM | OVCAR-5 > 100 µM | UO-31 > 100 µM | SK-MEL-2 > 100 µM | HOP-62 > 100 µM | NCI-H522 > 100 µM | U-251 > 100 µM
